# Source: publication PMC5688156, “The natural product carolacton inhibits folate-dependent C1 metabolism by targeting FolD/MTHFD” (Nature Communications, 2017)
# Target: T1, hsMTHFD2 (Homo sapiens, UniProt P13995)
# T1 construct: His-tag (vector pHis-TEV) (cleaved yes); made in house; host or cells: E. coli BL21 (DE3)
# T1 sequence (P13995 36-350): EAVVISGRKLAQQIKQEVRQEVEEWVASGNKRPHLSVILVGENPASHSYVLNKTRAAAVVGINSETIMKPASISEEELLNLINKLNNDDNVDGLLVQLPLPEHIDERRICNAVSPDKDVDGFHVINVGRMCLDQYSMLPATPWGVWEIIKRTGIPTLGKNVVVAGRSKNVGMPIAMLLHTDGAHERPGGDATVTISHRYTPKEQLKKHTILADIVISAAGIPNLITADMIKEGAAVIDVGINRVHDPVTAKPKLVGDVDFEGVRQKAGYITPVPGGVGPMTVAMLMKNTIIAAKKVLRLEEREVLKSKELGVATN
# Test: hsMTHFD2 cyclohydrolase (CYH) enzyme assay
# Format: biochemical
# Experimental: (6R,S)-5,10-Methylene-5,6,7,8-tetrahydrofolic acid ((6R,S)-5,10-CH2-THF) calcium salt and (6R,S)-5,10-Methenyl-5,6,7,8-tetrahydrofolic acid ((6R,S)-5,10-CH=THF) chloride were purchased from Schircks Laboratories (Bauma, Switzerland) and used as substrates for FolD dehydrogenase and cyclohydrolase enzyme assays, respectively. Only the R-isomer, which accounts for 50% of (6R,S)-5,10-CH2-THF and (6R,S)-5,10-CH=THF, respectively, is used by the enzyme. (6R,S)-5,10-CH2-THF was dissolved in N2-spargeled basic buffer (50 mM Tris-HCl (pH 8.0), 100 mM β-mercaptoethanol) as described by Varshney et al.[25]. (6R,S)-5,10-CH=THF was dissolved in DMSO as a 100 mM stock solution.
# Because FolD is a bifunctional enzyme, dehydrogenase and cyclohydrolase activities were determined for FolD enzyme kinetics, respectively. The dehydrogenase activity of FolD was assayed for its substrate 5,10-CH2-THF and cofactor NADP^+ (in the case of MTHFD2, NAD^+ was used as the cofactor) based on monitoring the formation of 5,10-CH=THF, while the cyclohydrolase activity of FolD was determined for its substrate 5,10-CH=THF by monitoring the hydrolysis of […]. The enzyme kinetics for the dehydrogenase activity of all FolDs except hsMTHFD1_DC were determined at 30 °C in 50 mM Tris-HCl (pH 7.5), 30 mM β-mercaptoethanol. The hsMTHFD1_DC dehydrogenase activity was measured in 25 mM MOPS (pH 7.3), 30 mM β-mercaptoethanol at 30 °C. […] To monitor the formation of 5,10-CH=THF, the absorbance of the reaction mixture was monitored at 350 nm in micro UV cuvettes (BRAND, Essex, Connecticut, USA). The concentration of 5,10-CH=THF produced in the reaction was determined using an extinction co-efficient of 0.0249 μM^−1 cm^−1. […] The consumption of 5,10-CH=THF was measured by recording the absorbance of the reactions at 355 nm using the TECAN Infinite 200 PRO equipped with a monochromator. […] The inhibition constants (K i) of carolacton on FolD were determined by measuring the apparent K m when adding certain amounts of carolacton to the enzyme reactions. […]
smiles,measurement,setting,value
CO[C@H](CC(=O)O)[C@@H](C)C(=O)[C@H](C)/C=C(\C)[C@H]1OC(=O)[C@H](O)[C@H](O)/C=C/[C@H](C)CCC[C@@H]1C [carolacton],IC50,"5 nM enzyme, read-out: IC50, carolacton inhibition on CYH activity",0.0857 µM
same,IC80,"5 nM enzyme, read-out: IC80, carolacton inhibition on CYH activity",0.202 µM
same,Ki,"vs 5,10-CH=THF, read-out: Ki (5,10-CH=THF), carolacton inhibition on CYH activity",0.0127 µM
